Data set [1] can be described thus: The drug is tested on WLS-086 corresponding to human gut metagenome with ENA study accession number: PRJEB37062 and ENA sample accession number: ERS12561752 for biotransformation under anaerobic condition. The drug concentrations were measured over 9 timepoints collected between 0 and 24 hours of incubation by liquid-chromatography-coupled mass spectrometry (LC–MS). The note with it: 2 µM.

The conditions of data set [2]: human gut metagenome, 24 h, 2 µM.
Data set [3] can be described thus: The drug is tested on WLS-007 corresponding to human gut metagenome with ENA study accession number: PRJEB37062 and ENA sample accession number: ERS12561742 for biotransformation under anaerobic condition. The drug concentrations were measured over 9 timepoints collected between 0 and 24 hours of incubation by liquid-chromatography-coupled mass spectrometry (LC–MS). The note with it: 2 µM.

For data set [4] the following is noted: human gut metagenome, 24 h, 2 µM. The source holds these as a separate data set.
A short description of data set [5]: The drug is tested on Z-002 corresponding to rabbit gut metagenome with ENA study accession number: PRJEB37062 and ENA sample accession number: ERS12561802 for biotransformation under anaerobic condition. The drug concentrations were measured over 9 timepoints collected between 0 and 24 hours of incubation by liquid-chromatography-coupled mass spectrometry (LC–MS). The note with it: 2 µM.

Data set [6] is described as follows: The drug is tested on WLS-069 corresponding to human gut metagenome with ENA study accession number: PRJEB37062 and ENA sample accession number: ERS12561748 for biotransformation under anaerobic condition. The drug concentrations were measured over 9 timepoints collected between 0 and 24 hours of incubation by liquid-chromatography-coupled mass spectrometry (LC–MS). The conditions noted are these: 2 µM.

Data set [7] in a line: The drug is tested on Z-008 corresponding to metagenome with ENA study accession number: PRJEB37062 and ENA sample accession number: ERS12561808 for biotransformation under anaerobic condition. The drug concentrations were measured over 9 timepoints collected between 0 and 24 hours of incubation by liquid-chromatography-coupled mass spectrometry (LC–MS). The conditions noted are these: 2 µM.

Data set [8] can be described thus: The drug is tested on Z-014 corresponding to rat gut metagenome with ENA study accession number: PRJEB37062 and ENA sample accession number: ERS12561814 for biotransformation under anaerobic condition. The drug concentrations were measured over 9 timepoints collected between 0 and 24 hours of incubation by liquid-chromatography-coupled mass spectrometry (LC–MS). The note with it: 2 µM.

The conditions of data set [9]: human gut metagenome, 24 h, 2 µM. This is another data set of the same source.
For data set [10] the following is noted: human gut metagenome, 24 h, 2 µM. The source holds these as a separate data set.
Data set [11] is described as follows: The drug is tested on WLS-052 corresponding to human gut metagenome with ENA study accession number: PRJEB37062 and ENA sample accession number: ERS12561747 for biotransformation under anaerobic condition. The drug concentrations were measured over 9 timepoints collected between 0 and 24 hours of incubation by liquid-chromatography-coupled mass spectrometry (LC–MS). The conditions noted are these: 2 µM.

A short description of data set [12]: The drug is tested on Z-003 corresponding to pig gut metagenome with ENA study accession number: PRJEB37062 and ENA sample accession number: ERS12561803 for biotransformation under anaerobic condition. The drug concentrations were measured over 9 timepoints collected between 0 and 24 hours of incubation by liquid-chromatography-coupled mass spectrometry (LC–MS). The note with it: 2 µM.

Data set [13] can be described thus: The drug is tested on Z-020 corresponding to rabbit gut metagenome with ENA study accession number: PRJEB37062 and ENA sample accession number: ERS12561819 for biotransformation under anaerobic condition. The drug concentrations were measured over 9 timepoints collected between 0 and 24 hours of incubation by liquid-chromatography-coupled mass spectrometry (LC–MS). The note with it: 2 µM.

A short description of data set [14]: The drug is tested on Z-019 corresponding to rat gut metagenome with ENA study accession number: PRJEB37062 and ENA sample accession number: ERS12561818 for biotransformation under anaerobic condition. The drug concentrations were measured over 9 timepoints collected between 0 and 24 hours of incubation by liquid-chromatography-coupled mass spectrometry (LC–MS). The note with it: 2 µM.

The conditions of data set [15]: human gut metagenome, 24 h, 2 µM. This is another data set of the same source.
A short description of data set [16]: The drug is tested on Z-023 corresponding to metagenome with ENA study accession number: PRJEB37062 and ENA sample accession number: ERS12561822 for biotransformation under anaerobic condition. The drug concentrations were measured over 9 timepoints collected between 0 and 24 hours of incubation by liquid-chromatography-coupled mass spectrometry (LC–MS). The note with it: 2 µM.

Data set [17] in a line: The drug is tested on Z-010 corresponding to metagenome with ENA study accession number: PRJEB37062 and ENA sample accession number: ERS12561810 for biotransformation under anaerobic condition. The drug concentrations were measured over 9 timepoints collected between 0 and 24 hours of incubation by liquid-chromatography-coupled mass spectrometry (LC–MS). The note with it: 2 µM.

The conditions of data set [18]: human gut metagenome, 24 h, 2 µM. The source holds these as a separate data set.
For data set [19] the following is noted: human gut metagenome, 24 h, 2 µM. This is another data set of the same source.
The nature of data set [20]: The drug is tested on Z-027 corresponding to metagenome with ENA study accession number: PRJEB37062 and ENA sample accession number: ERS12561826 for biotransformation under anaerobic condition. The drug concentrations were measured over 9 timepoints collected between 0 and 24 hours of incubation by liquid-chromatography-coupled mass spectrometry (LC–MS). The note with it: 2 µM.

Each structure is given as a SMILES string.
Note: call rule not given here.

For `COC(=O)[C@H](c1ccccc1Cl)N1CCc2sccc2C1.O=S(=O)(O)O` [CLOPIDOGREL BISULFATE], the “Bacterial Biotransformation” value in [1], in data set [2], in data set [3], in data set [4], in data set [5] and in data set [6] was “Compound metabolized” each time. For the same compound, the “Bacterial Biotransformation” value was “Compound metabolized” in data set [7]; “Compound NOT metabolized” in [8]; “Compound metabolized” in [9]; “Compound metabolized” in data set [10]; “Compound metabolized” in data set [11]; “Compound metabolized” in data set [12]. Besides, the “Bacterial Biotransformation” value in data set [13] was “Compound metabolized”; in data set [14], “Compound NOT metabolized”; in data set [15] it was “Compound metabolized”; in [16], “Compound metabolized”; in data set [17], “Compound metabolized”; in [18], “Compound metabolized”. Besides, the “Bacterial Biotransformation” value in data set [19] and in data set [20] was “Compound metabolized” each time.

For the compound `COc1ccccc1OCCNCC(O)COc1cccc2[nH]c3ccccc3c12` (stereo not given) [CARVEDILOL], the “Bacterial Biotransformation” value in data set [1] is listed as “Compound metabolized”; in [2], “Compound NOT metabolized”; in data set [3], “Compound NOT metabolized”; in data set [4] it was “Compound metabolized”; in data set [5] it was “Compound NOT metabolized”; in [6] it was “Compound metabolized”. Moreover, the “Bacterial Biotransformation” value in [7] is recorded as “Compound NOT metabolized”; in data set [8] it was “Compound NOT metabolized”; in data set [9], “Compound metabolized”; in data set [10], “Compound metabolized”; in [11] it was “Compound metabolized”; in [12], “Compound NOT metabolized”. Further, the “Bacterial Biotransformation” value was “Compound NOT metabolized” in data set [13]; “Compound NOT metabolized” in [14]; “Compound metabolized” in [15]; “Compound metabolized” in data set [16]; “Compound metabolized” in data set [17]; “Compound NOT metabolized” in [18]. The “Bacterial Biotransformation” value in data set [19] and in [20] was “Compound NOT metabolized” in each case.

Turning to `CC1Cc2ccccc2N1NC(=O)c1ccc(Cl)c(S(N)(=O)=O)c1` (stereo not given) [INDAPAMIDE], the “Bacterial Biotransformation” value in data set [1], in data set [2], in data set [3], in [4], in [5] and in [6] was “Compound NOT metabolized” each time. Besides, the “Bacterial Biotransformation” value in [7], in data set [8], in data set [9], in data set [10], in [11] and in data set [12] was “Compound NOT metabolized” in each case. The “Bacterial Biotransformation” value in data set [13], in data set [14], in data set [15], in data set [16], in data set [17] and in data set [18] was “Compound NOT metabolized” each time. Besides, the “Bacterial Biotransformation” value in [19] and in [20] was “Compound NOT metabolized” throughout.

Regarding `CCN(CC)C(=O)C1(c2ccccc2)CC1CN` (stereo not given), the “Bacterial Biotransformation” value in data set [1], in [2], in data set [3], in data set [4], in [5] and in data set [6] was “Compound NOT metabolized” in each case. Also, the “Bacterial Biotransformation” value in data set [7], in data set [8], in data set [9], in [10], in data set [11] and in [12] was “Compound NOT metabolized” each time. Also, the “Bacterial Biotransformation” value in data set [13], in data set [14], in data set [15], in [16], in [17] and in data set [18] was “Compound NOT metabolized” each time. Moreover, the “Bacterial Biotransformation” value in data set [19] and in [20] was “Compound NOT metabolized” throughout.

Regarding `CCN(CC)CCNC(=O)c1ccc(NC(C)=O)cc1` [ACECAINIDE], the “Bacterial Biotransformation” value in [1] is recorded as “Compound metabolized”; in [2], “Compound NOT metabolized”; in data set [3], “Compound NOT metabolized”; in [4], “Compound NOT metabolized”; in [5], “Compound metabolized”; in data set [6], “Compound NOT metabolized”. Also, the “Bacterial Biotransformation” value is “Compound NOT metabolized” in data set [7]; “Compound NOT metabolized” in data set [8]; “Compound metabolized” in data set [9]; “Compound NOT metabolized” in data set [10]; “Compound NOT metabolized” in data set [11]; “Compound NOT metabolized” in data set [12]. Besides, the “Bacterial Biotransformation” value is given as “Compound NOT metabolized” in data set [13]; “Compound NOT metabolized” in [14]; “Compound metabolized” in data set [15]; “Compound NOT metabolized” in data set [16]; “Compound NOT metabolized” in data set [17]; “Compound NOT metabolized” in data set [18]. Also, the “Bacterial Biotransformation” value in data set [19] and in data set [20] was “Compound NOT metabolized” in each case.

The values are drawn from ChEMBL document CHEMBL5724914, “Linking interpersonal differences in gut microbiota composition and drug biotransformation activity” (2024).
